The subject of this experiment is S. aureus. Description: Minimum inhibitory concentrations (MICs) for S. aureus of exemplary compounds (Table 2). Type of experiment: cell-based. The conditions noted are these: Staphylococcus aureus, minimum inhibitory concentrations for S. aureus; read-out: MICs. In a few lines: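 MICs (μg/mL) against S. aureus come from microtiter-tray dilution susceptibility testing per NCCLS M7-A5, comparing growth with and without compound.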

SMILES strings stand for the structures. In brackets after ≈: the same amount, converted by molar mass.

On to `CC(=O)NC[C@H]1CN(c2ccc(-c3ccc(CNC(=O)c4cnc5ccccc5c4)cc3)c(F)c2)C(=O)O1` [Compound 4009, Quinoline-3-carboxylic acid {4′-[5-(S)-(acetylamino-methyl)-2-oxo-oxazolidin-3-yl]-2′-fluoro-biphenyl-4-ylmethyl}-amide], for which the MIC turned out to be 32 µg/mL (≈ 62.4 µM).
As for `CC(=O)NC[C@H]1CN(c2ccc(-c3ccc(CN(C)C(=O)c4cccn4C)cc3)c(F)c2)C(=O)O1` [Compound 4051, 1-Methyl-1H-pyrrole-2-carboxylic acid {4′-[5-(S)-(acetylamino-methyl)-2-oxo-oxazolidin-3-yl]-2′-fluoro-biphenyl-4-ylmethyl}-methyl-amide], the figure is 4 µg/mL (≈ 8.36 µM).
As for `CC(=O)NC[C@H]1CN(c2ccc(-c3ccc(CNC(=O)/C=C/c4ccc(=O)n(C)c4)cc3)c(F)c2)C(=O)O1` [Compound 4193, N-{4′-[5-(S)-(Acetylamino-methyl)-2-oxo-oxazolidin-3-yl]-2′-fluoro-biphenyl-4-ylmethyl}-3-(1-methyl-6-oxo-1,6-dihydro-pyridin-3-yl)-acrylamide], the figure is 8 µg/mL (≈ 15.4 µM); as for `CC(=O)NC[C@H]1CN(c2ccc(-c3ccc(CNCCc4scnc4C)cc3)c(F)c2)C(=O)O1` [Compound 4096, N-[3-(2-Fluoro-4′-{[2-(4-methyl-thiazol-5-yl)-ethylamino]-methyl}-biphenyl-4-yl)-2-oxo-oxazolidin-5-(S)-ylmethyl]-acetamide], 4 µg/mL (≈ 8.29 µM); as for `CC(=O)NC[C@H]1CN(c2ccc(-c3ccc(CN4CCC(F)CC4)cc3)c(F)c2)C(=O)O1` [Compound 1094, N-{3-[2-Fluoro-4′-(4-fluoro-piperidin-1-ylmethyl)-biphenyl-4-yl]-2-oxo-oxazolidin-5-(S)-ylmethyl}-acetamide], 1 µg/mL (≈ 2.25 µM).
Then `CC(=O)NC[C@H]1CN(c2ccc(-c3ccc(CNCC4CC4)cc3)c(F)c2)C(=O)O1` [Compound 4300, N-(3-{4′-[(Cyclopropylmethyl-amino)-methyl]-2-fluoro-biphenyl-4-yl}-2-oxo-oxazolidin-5-(S)-ylmethyl)-acetamide], with 4 µg/mL (≈ 9.72 µM).
In the case of `CC(=O)NC[C@H]1CN(c2ccc(-c3ccc(CNC(=O)[C@@H]4C[C@@H](O)CN4C(=O)OC(C)(C)C)cc3)c(F)c2)C(=O)O1` [Compound 4311, 2-({4′-[5-(S)-(Acetylamino-methyl)-2-oxo-oxazolidin-3-yl]-2′-fluoro-biphenyl-4-ylmethyl}-carbamoyl)-4-(R)-hydroxy-pyrrolidine-1-(S)-carboxylic acid tert-butyl ester], the MIC was found to be 16 µg/mL (≈ 28 µM).
Then `CC(=O)NC[C@H]1CN(c2ccc(-c3ccc(CNCCCc4cn(Cc5ccccc5)nn4)cc3)c(F)c2)C(=O)O1` [Compound 4256, N-[3-(4′-{[3-(1-Benzyl-1H-[1,2,3]triazol-4-yl)-propylamino]-methyl}-2-fluoro-biphenyl-4-yl)-2-oxo-oxazolidin-5-(S)-ylmethyl]-acetamide], with 4 µg/mL (≈ 7.19 µM).
Then `CC(=O)NC[C@H]1CN(c2ccc(-c3ccc(C[S+]([O-])c4nc(C)cs4)cc3)c(F)c2)C(=O)O1` (stereo partly drawn) [Compound 2037, N-{3-[2-Fluoro-4′-(4-methyl-thiazole-2-sulfinylmethyl)-biphenyl-4-yl]-2-oxo-oxazolidin-5-(S)-ylmethyl}-acetamide], with 1 µg/mL (≈ 2.05 µM); and `CC(=O)NC[C@H]1CN(c2ccc(-c3ccc(Cn4cccn4)cc3)c(F)c2)C(=O)O1` [Compound 1043, N-[3-(2-Fluoro-4′-pyrazol-1-ylmethyl-biphenyl-4-yl)-2-oxo-oxazolidin-5-(S)-ylmethyl]-acetamide], with 0.25 µg/mL (≈ 0.612 µM); and `CC(=O)NC[C@H]1CN(c2ccc(-c3ccc(CNC(=O)/C=C/c4cncnc4)cc3)c(F)c2)C(=O)O1` [Compound 4006, N-{4′-[5-(S)-(Acetylamino-methyl)-2-oxo-oxazolidin-3-yl]-2′-fluoro-biphenyl-4-ylmethyl}-3-pyrimidin-5-yl-acrylamide], with 8 µg/mL (≈ 16.3 µM).
As for `COc1ccc2[nH]c(C(=O)NCc3ccc(-c4ccc(N5C[C@H](CNC(C)=O)OC5=O)cc4F)cc3)cc2c1` [Compound 4015, 5-Methoxy-1H-indole-2-carboxylic acid {4′-[5-(S)-(acetylamino-methyl)-2-oxo-oxazolidin-3-yl]-2′-fluoro-biphenyl-4-ylmethyl}-amide], the figure is 4 µg/mL (≈ 7.54 µM); as for `CC(=O)NC[C@H]1CN(c2ccc(-c3ccc(CNCc4nnn(C)n4)cc3)c(F)c2)C(=O)O1` [Compound 4284, N-[3-(2-Fluoro-4′-{[(2-methyl-2H-tetrazol-5-ylmethyl)-amino]-methyl}-biphenyl-4-yl)-2-oxo-oxazolidin-5-(S)-ylmethyl]-acetamide], 0.25 µg/mL (≈ 0.551 µM).
For the compound `CC(=O)NC[C@H]1CN(c2ccc(-c3ccc(CCn4ccnc4)cc3)c(F)c2)C(=O)O1` [Compound 1002, N-{3-[2-Fluoro-4′-(2-imidazol-1-yl-ethyl)-biphenyl-4-yl]-2-oxo-oxazolidin-5-(S)-ylmethyl}-acetamide], the MIC was found to be 2 µg/mL (≈ 4.73 µM).
As for `CC(=O)NC[C@H]1CN(c2ccc(-c3ccc(CNCc4c[nH]c(C)n4)cc3)c(F)c2)C(=O)O1` [Compound 4165, N-[3-(2-Fluoro-4′-{[(2-methyl-1H-imidazol-4-ylmethyl)-amino]-methyl}-biphenyl-4-yl)-2-oxo-oxazolidin-5-(S)-ylmethyl]-acetamide], the figure is 4 µg/mL (≈ 8.86 µM); as for `CC(=O)NC[C@H]1CN(c2ccc(-c3ccc(CNCc4cnoc4)cc3)c(F)c2)C(=O)O1` [Compound 4038, N-[3-(2-Fluoro-4′-{[(isoxazol-4-ylmethyl)-amino]-methyl}-biphenyl-4-yl)-2-oxo-oxazolidin-5-(S)-ylmethyl]-acetamide], 0.25 µg/mL (≈ 0.57 µM); as for `CCOC(=O)c1c(CNCc2ccc(-c3ccc(N4C[C@H](CNC(C)=O)OC4=O)cc3F)cc2)c(C)n(C2CC2)c1C` [Compound 4157, 4-[({4′-[5-(S)-(Acetylamino-methyl)-2-oxo-oxazolidin-3-yl]-2′-fluoro-biphenyl-4-ylmethyl}-amino)-methyl]-1-cyclopropyl-2,5-dimethyl-1H-pyrrole-3-carboxylic acid ethyl ester], 8 µg/mL (≈ 13.9 µM).
Then `CC(=O)NC[C@H]1CN(c2ccc(-c3ccc(CNCc4nnn[nH]4)cc3)c(F)c2)C(=O)O1` [Compound 4282, N-[3-(2-Fluoro-4′-{[(1H-tetrazol-5-ylmethyl)-amino]-methyl}-biphenyl-4-yl)-2-oxo-oxazolidin-5-(S)-ylmethyl]-acetamide], with 16 µg/mL (≈ 36.4 µM); and `CC(=O)NC[C@H]1CN(c2ccc(-c3ccc(CNCc4nccn4C)cc3)c(F)c2)C(=O)O1` [Compound 4076, N-[3-(2-Fluoro-4′-{[(1-methyl-1H-imidazol-2-ylmethyl)-amino]-methyl}-biphenyl-4-yl)-2-oxo-oxazolidin-5-(S)-ylmethyl]-acetamide], with 4 µg/mL (≈ 8.86 µM).
Then `CC(=O)NC[C@H]1CN(c2ccc(-c3ccc(CNCc4cnco4)cc3)c(F)c2)C(=O)O1` [Compound 4208, N-[3-(2-Fluoro-4′-{[(oxazol-5-ylmethyl)-amino]-methyl}-biphenyl-4-yl)-2-oxo-oxazolidin-5-(S)-ylmethyl]-acetamide], with 1 µg/mL (≈ 2.28 µM); and `CC(=O)NC[C@H]1CN(c2ccc(-c3ccc(C[S+]([O-])c4ncc[nH]4)cc3)c(F)c2)C(=O)O1` (stereo partly drawn) [Compound 2038, N-{3-[2-Fluoro-4′-(1H-imidazole-2-sulfinylmethyl)-biphenyl-4-yl]-2-oxo-oxazolidin-5-(S)-ylmethyl}-acetamide], with 2 µg/mL (≈ 4.38 µM).

These data come from patent US10471046B2, “Method for treating, preventing, or reducing the risk of skin infection” (Melinta Subsidiary Corp., priority 2014, dated 2019).
